Data from paper PMC10464554 (Journal of Enzyme Inhibition and Medicinal Chemistry, 2023).

Tests used:
[1] = biological target: NT650-Nps5 (recombinant SARS-CoV-2 main protease Nsp5) (Severe acute respiratory syndrome coronavirus 2, UniProt P0DTD1); assay: biochemical; type: binding
Nsp5 [2] = conditions: cited from earlier work
SARS-CoV-2 [3] = conditions: Vero E6 cells, 72 h readout; cited from earlier work
Nsp5 [4] = conditions: irreversible inhibitor of Nsp5; cited from earlier work
SARS-CoV-2 [5] = conditions: replication of SARS-CoV-2 in Vero E6 cells; cited from earlier work
Vero E6 cells = conditions: 200–0.1 µM, 24 h, MTT
SARS-CoV-2 BA.5 strain = type: cell-based

Compound: O=c1oc2c(O)c(O)cc3c(=O)oc4c(O)c(O)cc1c4c23 [Ellagic acid (7), ellagic acid]
- Kd [1]: 970 ± 140 nM
- Binding Efficiency Index (BEI) ([1]; BEI = pKd/MW (kDa)): 19.9
- Dissociation constant (SPR) (Nsp5 [2]): low micromolar

Compound: O=c1c(O)c(-c2cc(O)c(O)c(O)c2)oc2cc(O)cc(O)c12 [Myricetin (2), myricetin]
- Antiviral SARS-CoV-2 activity (CPE inhibition) (SARS-CoV-2 [3]): devoid of antiviral SARS-CoV-2 activity
- IC50 (Nsp5 [4]): 630 ± 10 nM
- EC50 (SARS-CoV-2 [5]): 8 µM

Compound: CC(C)(C)[C@H](NC(=O)C(F)(F)F)C(=O)N1C[C@H]2[C@@H]([C@H]1C(=O)N[C@H](C#N)C[C@@H]1CCNC1=O)C2(C)C [Nirmatrelvir (1), Nirmatrelvir]
- Cell viability (cytotoxic effect) (Vero E6 cells): well-tolerated by Vero E6 cells at all the concentrations tested
- Viral replication (supernatant viral titre) (SARS-CoV-2 BA.5 strain): significantly reduce the number of infective particles
